# Assay results reported in PMC4018390, “Important Role of CYP2J2 in Protein Kinase Inhibitor Degradation: A Possible Role in Intratumor Drug Disposition and Resistance” (PLoS ONE, 2014).
# Like-named read-outs stand apart in the source and are kept apart here.
# Experiments:
# CYP1A1 [1] = biological target: T1, CYP1A1 (Homo sapiens, UniProt P04798); conditions: read-out: Affinity Constant, Km, Km of the parent TKI (imatinib) for production of the labelled metabolite, values marked (*), previous published study ref 18; cited from earlier work
# T1 sequence (P04798 1-512): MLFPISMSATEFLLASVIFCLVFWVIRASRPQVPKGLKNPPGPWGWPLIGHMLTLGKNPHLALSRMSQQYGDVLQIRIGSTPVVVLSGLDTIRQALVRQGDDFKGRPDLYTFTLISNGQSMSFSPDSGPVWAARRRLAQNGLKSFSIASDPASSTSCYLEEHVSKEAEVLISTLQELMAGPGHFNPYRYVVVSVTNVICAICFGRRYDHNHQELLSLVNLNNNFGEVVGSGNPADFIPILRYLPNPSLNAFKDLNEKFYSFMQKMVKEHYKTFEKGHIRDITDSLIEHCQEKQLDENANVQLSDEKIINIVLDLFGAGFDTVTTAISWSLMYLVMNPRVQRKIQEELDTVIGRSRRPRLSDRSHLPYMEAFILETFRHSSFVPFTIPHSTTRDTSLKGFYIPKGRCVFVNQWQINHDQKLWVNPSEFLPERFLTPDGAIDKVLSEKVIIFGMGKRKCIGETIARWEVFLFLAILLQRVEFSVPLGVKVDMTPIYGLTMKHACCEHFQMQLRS
# CYP2J2 [2] = biological target: T2, CYP2J2 (Homo sapiens, UniProt P51589); experiment: Michaelis-Menten kinetics of TKI metabolite production, cDNA expressed CYP2J2 microsomes; conditions: for Km: read-out: Affinity Constant, Km, Km of the parent TKI for production of the labelled metabolite, 10 pmoles CYP, TKI 0.5-20 µM, 15 min
# T2 sequence (P51589 1-502): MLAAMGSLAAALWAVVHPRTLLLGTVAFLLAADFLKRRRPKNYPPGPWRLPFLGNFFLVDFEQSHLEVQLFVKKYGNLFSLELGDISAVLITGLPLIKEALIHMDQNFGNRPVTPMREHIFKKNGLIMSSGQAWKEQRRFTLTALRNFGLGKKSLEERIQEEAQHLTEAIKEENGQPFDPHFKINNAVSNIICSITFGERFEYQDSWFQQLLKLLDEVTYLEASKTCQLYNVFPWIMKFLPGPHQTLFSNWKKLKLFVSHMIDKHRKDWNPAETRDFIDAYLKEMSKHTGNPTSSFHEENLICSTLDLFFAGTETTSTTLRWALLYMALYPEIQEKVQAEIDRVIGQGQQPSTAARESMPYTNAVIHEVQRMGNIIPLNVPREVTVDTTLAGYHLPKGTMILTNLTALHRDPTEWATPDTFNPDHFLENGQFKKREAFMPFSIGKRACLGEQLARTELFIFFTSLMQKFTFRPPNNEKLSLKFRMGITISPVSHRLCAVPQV
# CYP3A4 [3] = biological target: T3, CYP3A4 (Homo sapiens, UniProt P08684); experiment: Michaelis-Menten kinetics of TKI metabolite production, cDNA expressed CYP3A4 microsomes; conditions: for Km: read-out: Affinity Constant, Km, CYP3A4, Km of the parent TKI for production of the labelled metabolite, 10 pmoles CYP, TKI 0.5-20 µM, 15 min
# CYP1A1 [4] = biological target: T1, CYP1A1; experiment: Michaelis-Menten kinetics of TKI metabolite production, cDNA expressed CYP1A1 microsomes; conditions: for Km: read-out: Affinity Constant, Km, Km of the parent TKI for production of the labelled metabolite, 10 pmoles CYP, TKI 0.5-20 µM, 15 min; for Relative Intrinsic Clearance: Vmax/Km for production of the labelled metabolite, as fold difference of the intrinsic clearance of CYP3A4
# CYP1A1 [5] = biological target: T1, CYP1A1; conditions: HepG2 cells infected with CYP1A1 adenovirus; up to 72 hours; result in words
# Description: (§1) Protein pellets were discarded.
# CYP1B1 [6] = biological target: T4, CYP1B1 (Homo sapiens, UniProt Q16678); experiment: TKI disappearance in microsomal incubations with cDNA expressed CYP1B1; assay type: in vitro ADME; set-up: purchased BD Bioscience (Belgium), BD Gentest; host or cells: insect cells; conditions: TKI 2.5 µM at T = 0, first 10 minutes, 20 picomoles of CYP
# T4 sequence (Q16678 1-543): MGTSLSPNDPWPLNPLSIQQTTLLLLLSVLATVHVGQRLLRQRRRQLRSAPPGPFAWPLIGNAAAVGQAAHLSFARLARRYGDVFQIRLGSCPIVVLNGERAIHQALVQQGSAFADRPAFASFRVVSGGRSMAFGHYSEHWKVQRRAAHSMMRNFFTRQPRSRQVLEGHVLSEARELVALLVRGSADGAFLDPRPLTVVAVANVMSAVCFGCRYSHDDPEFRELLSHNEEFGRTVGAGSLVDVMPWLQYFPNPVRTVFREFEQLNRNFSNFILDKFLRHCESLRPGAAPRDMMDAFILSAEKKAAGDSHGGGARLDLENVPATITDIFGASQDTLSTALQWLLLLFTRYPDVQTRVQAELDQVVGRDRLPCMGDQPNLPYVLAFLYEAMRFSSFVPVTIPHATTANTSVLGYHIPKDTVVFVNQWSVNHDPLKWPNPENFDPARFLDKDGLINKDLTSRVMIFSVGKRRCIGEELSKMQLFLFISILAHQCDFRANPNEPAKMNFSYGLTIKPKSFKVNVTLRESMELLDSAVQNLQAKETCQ
# Procedure: (§2) The disappearance rate was calculated after 10 min (see Table 1 ) taking into account the percent of TKI removed from the incubation (0.25 nmole of TKI and 20 pmoles of CYP in 100 µL) and are expressed in (nmole of degraded TKI/(nanomole of CYP×min)).
# as §1
# CYP1A1 [7] = biological target: T1, CYP1A1; experiment: TKI disappearance in microsomal incubations with cDNA expressed CYP1A1; assay type: in vitro ADME; set-up: purchased BD Bioscience (Belgium), BD Gentest; host or cells: insect cells
# Procedure: as §2, §1
# CYP2J2 [8] = biological target: T2, CYP2J2; conditions: 2.5 µM, pH 7.4; for Disappearance rate in microsomal incubations: 10 min; for TKI levels removed from incubations: 30 min
# Procedure: as §2, §1
# CYP3A4 [9] = biological target: T3, CYP3A4; conditions: 2.5 µM, pH 7.4; for Disappearance rate in microsomal incubations: 10 min; for TKI levels removed from incubations: 30 min
# Procedure: as §2, §1
# CYP1B1 [10] = biological target: T4, CYP1B1; experiment: TKI disappearance in culture media of HepG2 cells infected with adenovirus expressing CYP1B1; conditions: up to 72 hours, result in words
# CYP2J2 [11] = biological target: T2, CYP2J2; experiment: TKI disappearance in culture media of HepG2 cells infected with adenovirus expressing CYP2J2; conditions: up to 72 hours, result in words
# Description: as §1
# CYP2J2 [12] = conditions: approved drugs identified as CYP2J2 inhibitors; cited from earlier work
# CYP1B1 [13] = biological target: T4, CYP1B1; experiment: Michaelis-Menten kinetics of TKI metabolite production, cDNA expressed CYP1B1 microsomes; conditions: for Relative Intrinsic Clearance: Vmax/Km for production of the labelled metabolite, as fold difference of the intrinsic clearance of CYP3A4; for Km: read-out: Affinity Constant, Km, Km of the parent TKI for production of the labelled metabolite, 10 pmoles CYP, TKI 0.5-20 µM, 15 min
# CYP1B1 [14] = biological target: T4, CYP1B1; set-up: purchased BD Bioscience (Belgium), BD Gentest; host or cells: insect cells; method as in earlier work; conditions: compared with CYP1A1 and 3A4, ref 22 (Kamath et al.); cited from earlier work
# CYP3A4 [15] = biological target: T3, CYP3A4; set-up: purchased BD Bioscience (Belgium), BD Gentest; host or cells: insect cells; method as in earlier work; conditions: compared with CYP1A1 and 1B1, ref 22 (Kamath et al.); cited from earlier work
# CYP1A1 [16] = biological target: T1, CYP1A1; set-up: purchased BD Bioscience (Belgium), BD Gentest; host or cells: insect cells; method as in earlier work; conditions: compared with CYP1B1 and 3A4, ref 22 (Kamath et al.); cited from earlier work
# [17] = CYP1A1, TKI 2.5 µM at T = 0, first 10 minutes, 20 picomoles of CYP
# T3 sequence (P08684 whole entry): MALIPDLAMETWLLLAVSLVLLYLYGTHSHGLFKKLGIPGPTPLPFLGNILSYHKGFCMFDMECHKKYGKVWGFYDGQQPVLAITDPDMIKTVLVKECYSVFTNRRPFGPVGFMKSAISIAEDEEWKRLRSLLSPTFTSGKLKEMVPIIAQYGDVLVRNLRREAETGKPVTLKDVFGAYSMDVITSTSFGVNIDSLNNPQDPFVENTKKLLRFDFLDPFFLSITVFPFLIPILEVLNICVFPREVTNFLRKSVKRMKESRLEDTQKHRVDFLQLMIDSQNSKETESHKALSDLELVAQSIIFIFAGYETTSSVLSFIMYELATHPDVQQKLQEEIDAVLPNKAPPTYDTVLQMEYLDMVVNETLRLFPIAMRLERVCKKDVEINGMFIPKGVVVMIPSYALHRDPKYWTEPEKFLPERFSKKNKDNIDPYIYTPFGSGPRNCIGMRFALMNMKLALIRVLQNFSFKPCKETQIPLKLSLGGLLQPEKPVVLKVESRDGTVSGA
compound,measurement,setting,value
Cc1ccc(NC(=O)c2ccc(CN3CCNCC3)cc2)cc1Nc1nccc(-c2cccnc2)n1 [N-demethyl-imatinib],Km,CYP1A1 [1],7.6 µM
N-oxide-nilotinib [NO-nilotinib #1],Km,CYP2J2 [2],0.8 µM
same,Km,CYP3A4 [3],27.6 µM
same,Km,CYP1A1 [4],3 µM
"CCN(CC)CCNC(=O)c1c(C)[nH]c(/C=C2\C(=O)Nc3ccc(F)cc32)c1C [Sunitinib, sunitinib]",TKI removal from HepG2 cell culture media,CYP1A1 [5],equal rate for CYP1A1 and 2J2
same,Disappearance rate in microsomal incubations,CYP1B1 [6],0.1 nmoles of TKI degraded/(min×nmole of CYP)
same,Disappearance rate in microsomal incubations,CYP1A1 [7],0.6 nmoles of TKI degraded/(min×nmole of CYP)
"Cc1cn(-c2cc(NC(=O)c3ccc(C)c(Nc4nccc(-c5cccnc5)n4)c3)cc(C(F)(F)F)c2)cn1 [Nilotinib, nilotinib]",Disappearance rate in microsomal incubations,CYP2J2 [8],0.7 nmoles of TKI degraded/(min×nmole of CYP)
same,TKI levels removed from incubations,CYP2J2 [8],more than 60%
same,Disappearance rate in microsomal incubations,CYP3A4 [9],1.2 nmoles of TKI degraded/(min×nmole of CYP)
same,TKI levels removed from incubations,CYP3A4 [9],more than 60%
same,TKI removal from HepG2 cell culture media,CYP1B1 [10],very slowly by CYP1B1
same,TKI removal from HepG2 cell culture media,CYP2J2 [11],mainly removed by CYP2J2
same,Disappearance rate in microsomal incubations,CYP1B1 [6],0.3 nmoles of TKI degraded/(min×nmole of CYP)
same,Disappearance rate in microsomal incubations,CYP1A1 [7]; [17],0.2 nmoles of TKI degraded/(min×nmole of CYP)
"CNC(=O)c1cc(Oc2ccc(NC(=O)Nc3ccc(Cl)c(C(F)(F)F)c3)cc2)ccn1 [Sorafenib, sorafenib]",TKI removal from HepG2 cell culture media,CYP1B1 [10],very slowly by CYP1B1
same,Disappearance rate in microsomal incubations,CYP1B1 [6],0.0 nmoles of TKI degraded/(min×nmole of CYP)
same,Disappearance rate in microsomal incubations,CYP1A1 [7]; [17],0.4 nmoles of TKI degraded/(min×nmole of CYP)
C#C[C@]1(O)CC[C@H]2[C@@H]3CCC4=Cc5oncc5C[C@]4(C)[C@H]3CC[C@@]21C [danazol],CYP2J2 inhibition,CYP2J2 [12],CYP2J2 inhibitors
Fc1ccc(C(c2ccc(F)cc2)N2CCN(C/C=C/c3ccccc3)CC2)cc1 [flunarizine],CYP2J2 inhibition,CYP2J2 [12],CYP2J2 inhibitors
"CCNCCNC(=O)c1c(C)[nH]c(/C=C2\C(=O)Nc3ccc(F)cc32)c1C [Z-deethyl-sunitinib #2, Z-deethyl-sunitinib]",Relative Intrinsic Clearance,CYP1B1 [13],0.1 fold diff.
same,Relative Intrinsic Clearance,CYP1A1 [4],0.2 fold diff.
same,Km,CYP1A1 [4],6.7 µM
CCCc1nc2c(C)cc(-c3nc4ccccc4n3C)cc2n1Cc1ccc(-c2ccccc2C(=O)O)cc1 [telmisartan],CYP2J2 inhibition,CYP2J2 [12],CYP2J2 inhibitors
"CCNCCNC(=O)c1c(C)[nH]c(/C=C2\C(=O)Nc3ccc(F)cc32)c1C [E-deethyl-sunitinib #1, E-deethyl-sunitinib]",Relative Intrinsic Clearance,CYP1B1 [13],0.1 fold diff.
same,Km,CYP1B1 [13],2.7 µM
same,Relative Intrinsic Clearance,CYP1A1 [4],0.1 fold diff.
same,Km,CYP1A1 [4],6.9 µM
"Cc1nc(Nc2ncc(C(=O)Nc3c(C)cccc3Cl)s2)cc(N2CCN(CCO)CC2)n1 [Dasatinib, dasatinib]",Disappearance rate in microsomal incubations,CYP2J2 [8],1.1 nmoles of TKI degraded/(min×nmole of CYP)
same,TKI levels removed from incubations,CYP2J2 [8],more than 60%
same,Disappearance rate in microsomal incubations,CYP3A4 [9],1.2 nmoles of TKI degraded/(min×nmole of CYP)
same,TKI levels removed from incubations,CYP3A4 [9],more than 60%
same,Degradation in similar microsomal incubations,CYP1B1 [14],comparable rate of disappearance
same,TKI removal from HepG2 cell culture media,CYP1A1 [5],CYP2J2>CYP1A1>CYP1B1
same,TKI removal from HepG2 cell culture media,CYP1B1 [10],CYP2J2>CYP1A1>CYP1B1
same,TKI removal from HepG2 cell culture media,CYP2J2 [11],CYP2J2>CYP1A1>CYP1B1
same,Degradation in similar microsomal incubations,CYP3A4 [15],comparable rate of disappearance
same,Degradation in similar microsomal incubations,CYP1A1 [16],comparable rate of disappearance
same,Disappearance rate in microsomal incubations,CYP1B1 [6],1.0 nmoles of TKI degraded/(min×nmole of CYP)
same,Disappearance rate in microsomal incubations,CYP1A1 [7]; [17],0.9 nmoles of TKI degraded/(min×nmole of CYP)
Cc1nc(Nc2ncc(C(=O)Nc3c(C)cccc3Cl)s2)cc(N2CCNCC2)n1 [dehydroxyethyl-dasatinib],Relative Intrinsic Clearance,"CYP2J2 [2]; Vmax/Km for production of the labelled metabolite, as fold difference of the intrinsic clearance of CYP3A4",0.5 fold diff.
same,Km,CYP2J2 [2],3.9 µM
same,Relative Intrinsic Clearance,"CYP3A4 [3]; CYP3A4 (reference, set to 1.0), Vmax/Km for production of the labelled metabolite",1.0 fold diff.
same,Km,CYP3A4 [3],71.4 µM
same,Relative Intrinsic Clearance,CYP1B1 [13],1.1 fold diff.
same,Km,CYP1B1 [13],2.2 µM
same,Relative Intrinsic Clearance,CYP1A1 [4],0.5 fold diff.
same,Km,CYP1A1 [4],4.7 µM
